This note sets out measurements from US9375450B2, “Vaginal tissue rejuvenation compositions and methods” (priority 2011, dated 2016).

Each structure is given as a SMILES string.

Experiment [1] deals with rat vaginal Col1a1, Col3a1, Col5a1 mRNA. In words: qRT-PCR of vaginal collagen gene expression after 2 weeks vaginal suppositories. The format is in vivo. The conditions noted are these: OVX rats, vaginal suppositories 2 weeks, mean±SD; for ratio of vaginal Col1a1 to Col3a1 mRNA expression: placebo 0.78±0.2; for ratio of vaginal Col1a1 to Col5a1 mRNA expression: placebo 4.3±1.9. For orientation: In qPCR the cycle at which signal appears reflects the starting amount.
Source text: Ten to 12-weeks old female ovariectomized (OVX) Sprague-Dawley rats were utilized for the experiments. The animals were acclimatized to the environmental conditions before starting the experiment. The animals were housed individually and were allowed free access to water and rodent food. Two weeks after the ovariectomy rats (n=36) were divided into five groups: control (receiving placebo suppositories, n=8), Zinc (receiving zinc sulfate containing suppositories, n=8), GW (receiving GW501516 containing suppositories, n=8), Zinc with GW (receiving Zinc with GW 501516 containing suppositories, n=8) and Estradiol (receiving estradiol containing suppositories, n=4).
The suppositories were prepared according to the fusion method, using a polypeg suppository base (MEDISCA, N.Y., USA). […] Using a microwave, the suppository base was melted in a small beaker for 3 min and then transferred and kept into a water bath at a temperature of 55° C. The proper amount of above reagent was added to the liquefied base and meticulously crushed with a smooth rounded-end glass rod for about 20 min to make the solution to be even and clear. A pipette tip was used to suck some amount of solution and push it into a plastic tube with a diameter of 3.5 mm, and the tube was immediately left on the flat surface of an ice bucket. The suppository turned to white in color when it was solid. The moulded suppository was then pushed out of the tube using a round rod. The moulded suppository was cut using a razor blade to a length of 1.2 cm each, which was calibrated to equal a volume of 50±5 μl per each suppository. After 30 min of cooling at room temperature, the suppositories were stored at 4° C. in a closed chamber until use. They were left to reach room temperature before use.
The day after the last treatment the rats were overnight fasted and then sacrificed. Macroscopic measurement (genital hiatus, vaginal length) were taken and the vagina was dissected out carefully to avoid any injury to the vagina. The mid section of the vagina was utilized for histology (H and E stain, Masson's trichrome stain) and immunofluorescence and the rest of the vagina was used for RNA extraction and RT-PCR.
Total RNA was isolated from 20 mg of vaginal rat tissue in each experimental rat group using the RNeasy Mini kit (Qiagen) according to the manufacturer's specifications. For each total RNA preparation, DNase digestion was performed to remove contaminating genomic DNA. Total RNA samples from each tissue were quantified and evaluated for RNA integrity by the Agilent Bioanalyzer 2100 (Applied Biosystems, Foster City Calif., USA). Following RNA extraction, cDNA was reverse transcribed from ˜500 ng of each total RNA preparation using the qScript cDNA synthesis kit (Quanta Biosciences, Gaithersburg Md., USA). Finally, cDNA samples were used to perform gene expression analysis by qRT-PCR using SYBR Green technology on the RealPlex EP Mastercycler (Eppendorf, Germany) of five genes with known roles in vaginal tissue reconstruction: Collagen IaI (col 1a1), Collagen IIIaI (col 3a1), Collagen VaI (col 5a1), Elastin (eln), Tensin I (tns-1). Glyceraldehyde-3 Phosphate Dehydrogenase (gapdh) was used as a positive control to normalize the expression of each gene. Each qRT-PCR reaction was run in triplicate using Perfecta SYBR Green Supermix (Quanta Biosciences, Gaithersburg Md., USA) in 25 μL reaction volumes using a final concentration of 300 nM forward and reverse primers. For each of the genes analyzed in this study, primers were designed using Primer-BLAST software (NCBI) and synthesized by IDT Technologies (San Diego, Calif.).

The test system of experiment [2] is primary vaginal smooth muscle cells. Description: Sircol collagen assay (cell culture surface deposited collagen). The format is cell-based, human. The conditions noted are these: 48 hours of treatment, mean±SD. How it is done: (§1) After removal of the uterus, full-thickness samples of the anterior vaginal wall were obtained from the vaginal cuff at the anterior midline portion under sterile condition from four women without POP. Specimens were preserved in cold DMEM/F12 (Invitrogen, Carlsbad, Calif.) supplemented with 10% FBS, 1 mM glutamine, 0.075% Na2HCO3 and 100 ug/ml penicillin-streptomycin. After a maximum time of 4 hours from tissue harvesting the tissue was mechanically minced in cold cultured media and the fragments were washed 3 times in PBS and were plated onto fibronectin coated plastic dishes (Thermo Fischer Scientific, Rochester, N.Y.). After the initial outgrowth, clones with a morphology resembling the smooth muscle phenotype were patch cloned and propagated in culture. For cell characterization a 5000 cell/well fibronectin coated 8-well chamber slide was plated. Once cell confluence reached 80% the cells were washed twice with PBS and fixed in 4% PFA for 30 min at 37° C. To verify the intracytoplasmic distribution of F-actin fibers 4% PFA fixed cells were exposed to a permeabilizing solution of Tryton X100 0.1% and Rhodamine Phalloidin for 45 min at 37° C. Slides were then treated with mounting media (Vectashield, Vector Laboratories, Burlingame, Calif.) containing DAPI for nucleic acid staining and image acquisition was performed in glycerol immersion by confocal microscopy. In addition, the 8-well chamber slides were used to carry out the immunocytochemical staining. After blockage of endogenous peroxidase activity with a solution of hydrogen peroxide and methanol, slides were sequentially treated with the primary mouse antibody, biotinylated anti-mouse immunoglobulin, and Streptavidin-biotin-peroxidase complex (LSAB™+/HRP kit, Dako, Carpinteria, Calif.). Diaminobenzidine was used as a chromogen in the presence of hydrogen peroxide. Slides were then counterstained with hematoxylin. All reactions were carried out at room temperature (22° C.). To identify the SMC, anti-smooth muscle actin antibodies were used (monoclonal mouse, 1:250, 30 min incubation, clone 1A4, catalog #0851 Dako, Carpinteria, Calif.). Caldesmon expression was studied with a monoclonal mouse antibody, 1:100, 30 min incubation, (clone h-CD catalog #M3557 Dako, Carpinteria, Calif.). An antigen retrieval step was used for caldesmon using citrate buffer and a steamer for 30 min. As a negative control normal mouse serum was substituted for the antibody.
The Sircol Assay (Biocolor Ltd., UK) is a dye-binding method designed for the analysis of acid and pepsin-soluble collagens. […]
The amount of collagen was determined by SIRCOL collagen assay according to manufacturer's instructions. […] Extracts were incubated with Sirius red dye and absorbance was determined at 555 nm with a spectrophotometer.

Experiment [3] has the same test system. Description: MTT proliferation assay. The class given is cell-based, human. The conditions noted are these: mean±SD. Here is the method:
as §1
To perform the MTT proliferation assay, SMC from the fourth to sixth passages (5,000 cells per well) were cultured in 96-well culture plates (Costar, Cambridge, Mass.), in a total volume of 200 μL DMEM/F-12 with 10% FBS. Cells were incubated with zinc sulfate heptahydrate (Sigma, Saint Louis, Mo.) (10 μM, 20 μM and 50 μM), GW501516 (Alexis, Switzerland) (1 nM, 10 nM, 100 nM) in 96-well plates and cell proliferation was assessed by a 3-[4,5-dimethylthiazol-2-yl]-2,5-diphenyl tetrazoliumbromide (MTT) assay at 24 or 48 hrs utilizing a commercially available MTT assay kit (American Type Culture Collection, Catalog #30-1010K, Manassas, Va.). Treatment and control groups were performed in 6 replicate wells. The relative number of viable cells was determined at 24 or 48 hours by incubating the cells with 1 mg/mL of MTT for 4 hours. The live cells utilized MTT resulting in the accumulation of formazan crystals which were then solubilized with acid isopropanol (90% isopropyl alcohol, 2.5% SDS, 0.004 N HCL) for 1 hour. The optical density of the solution was measured at 570 nm.
On the technique in general: Tetrazolium assays rely on reduction of a dye to a coloured formazan, in cell work by metabolically active cells.

For experiment [4] the test system is unchanged. In words: Fastin assay for elastin (tropoelastin and surface deposited elastin production). The format is cell-based, human. The conditions noted are these: for tropoelastin production normalized to cell number (% of control) / cell culture surface deposited elastin production normalized to cell number (% of control): mean±SD; for cell culture surface deposited elastin production normalized to cell number (% of control): 48 hours of treatment; for vaginal smooth muscle cell elastin production (in words): cell cultures of the vagina from women who have undergone a hysterectomy. How it is done:
as §1
SMC from the fourth to sixth passages (5,000 cells per well) were cultured in 96-well or 6-well culture plates (Costar, Cambridge, Mass.), in a total volume of 200 μL or 2 mL DMEM/F-12 with 10% FBS and were grown to near confluence. Cells were incubated with zinc sulfate (10 μM, 20 μM), GW501516 (1 nM, 10 nM, 100 nM) or zinc sulfate with GW 501516 (20 μM with 10 nM) in 96-well plates with serum free DMEM/F-12. Treatment and control groups were performed in 6 replicate wells. Supernatants and cell lysates were collected 24 or 48 hrs after the initiation of treatment. Supernatants and cell lysates were treated with the Fastin Elastin Assay kit (Biocolor Ltd, UK) as recommended by the manufacturer. The Fastin Elastin Assay is a quantitative dye-binding method for the analysis of elastins extracted from biological materials. The dye label employed is 5, 10, 15, 20-tetraphenyl-21, 23-porphine tetra-suffocated (TPPS). The dye reagent binds to the ‘basic’ and ‘non-polar’ amino acid sequences found in mammalian elastins. Recovered dye-bound elastin from each sample and standard was read in a 96-well plate at 513 nm. All measurements were performed in quadruplicate. The measured elastin protein amounts were normalized to corresponding cell numbers to provide a reliable basis of comparison between samples.

Take `Cc1cc(SCc2sc(-c3ccc(C(F)(F)F)cc3)nc2C)ccc1OCC(=O)O` [GW501516, 2-[2-methyl-4-([4-methyl-2-[4-(trifluoromethyl)phenyl)-1,3-thiazol-5-yl]methylsulfanyl]phenoxy]acetic acid]: the “ratio of vaginal Col1a1 to Col3a1 mRNA expression” value in experiment [1] was 1.0±0.2 relative units. In addition, the “ratio of vaginal Col1a1 to Col5a1 mRNA expression” value in experiment [1] is listed as 8.8±3.0 relative units. Moreover, the “cell culture surface deposited collagen production normalized to cell number (% of control)” value is 151.0±22 % of control in experiment [2] (GW 10 nM) and 118.2±19 % of control in experiment [2] (GW 100 nM). Besides, the “relative cell number (% of control)” value in experiment [3] (1 nM, 24 hrs of culture) was 98.9±10.3 % of control; in experiment [3] (10 nM, 24 hrs of culture) it was 95.9±6.5 % of control; in experiment [3] (100 nM, 24 hrs of culture) it was 87.0±10.6 % of control. Besides, the “tropoelastin production normalized to cell number (% of control)” value in experiment [4] (1 nM, 24 hrs of culture) is 106.6±16 % of control; in experiment [4] (10 nM, 24 hrs of culture), 120.5±16 % of control; in experiment [4] (100 nm, 24 hrs of culture), 146.7±11 % of control. Besides, the “cell culture surface deposited elastin production normalized to cell number (% of control)” value is recorded as 108.2±6 % of control in experiment [4] (GW 10 nM) and 112.2±16 % of control in experiment [4] (GW 100 nM). For the same molecule, the “vaginal smooth muscle cell elastin production (in words)” value in experiment [4] is listed as “significantly increase”.

As for `O.O.O.O.O.O.O.O=S(=O)([O-])[O-].[Zn+2]` [zinc sulfate, zinc sulfate heptahydrate], in experiment [1], the “ratio of vaginal Col1a1 to Col3a1 mRNA expression” value was determined as 0.95±0.1 relative units. Also, in experiment [1], the “ratio of vaginal Col1a1 to Col5a1 mRNA expression” value was determined as 9.7±2.5 relative units. Moreover, the “cell culture surface deposited collagen production normalized to cell number (% of control)” value was 139.3±49 % of control in experiment [2] (zinc sulfate 10 μM) and 129.6±27 % of control in experiment [2] (zinc sulfate 20 μM). In addition, the “relative cell number (% of control)” value in experiment [3] (10 μM, 48 hrs of culture) is 94.7±4.6 % of control; in experiment [3] (20 μM, 48 hrs of culture), 90.4±5.5 % of control; in experiment [3] (50 μM, 48 hrs of culture) it was 43.3±30.0 % of control. For the same molecule, the “tropoelastin production normalized to cell number (% of control)” value in experiment [4] (10 μM, 48 hrs of culture) is 113.3±11 % of control; in experiment [4] (20 μM, 48 hrs of culture), 117±8.9 % of control. Further, in experiment [4], the “vaginal smooth muscle cell elastin production (in words)” value is “significantly increased”. For the same molecule, the “cell culture surface deposited elastin production normalized to cell number (% of control)” value is on record as 114.7±6 % of control in experiment [4] (zinc sulfate 10 μM) and 118.0±25 % of control in experiment [4] (zinc sulfate 20 μM).
